Experimental data as given in patent publication US20070154882A1, “Beta-polypeptides that inhibit cytomegalovirus infection” (priority 2005, published 2007).

What was measured:
[1] = test system: NHDF cells
[2] = test system: human red blood cells
[3] = test system: HCMV membrane fusion (nuclear localization of pp65) in NHDF cells; experiment: pp65 translocation (virion content delivery) assay; assay type: cell-based; details: HCMV diluted with 100 µM beta-peptide; 4° C. 90 min, then 37° C. 35 min
Procedure: NHDF cells were grown on glass cover-slips in 12-well plates as above. The HCMV was diluted with 100 µM beta-peptide in SF-DMEM and cooled to 4° C. The treatment was then added to cooled cells, which were incubated at 4° C. for 90 min, assuring viral attachment but not entry. The cells were then transferred to 37° C. for 35 min. The cells were then fixed in 3% paraformaldehyde and immunostained for pp65 as described (Lopper, M.; Compton, T. (2004) in J. Virol. Vol. 78, pp. 8333-8341). Images were taken on the Nikon Eclipse TE2000-S with appropriate filters, using consistent exposure times.
The infectivity assays used in these Examples measures immediate early gene expression; immediate early (IE) proteins are the first viral proteins expressed in infected cells. Inhibition of viral gene expression could reflect interference at a variety of points in the virus life cycle such as inhibition of IE gene transcription or translation. A virion content delivery assay was performed to test whether the beta-peptides act at the viral entry stage, as they have been designed to do. Immediately upon membrane fusion, the phosphoprotein-rich tegument layer of the virus is released into the cytoplasm of the target cell. The pp65 protein, highly abundant in the virion tegument, diffuses rapidly to the nucleus after membrane fusion. […]

Compound | Cytotoxicity, as indicated by P1 uptake [1] | further results
CC(=O)NC1CCCC1C(=O)N[C@H](CC(=O)NC1CCCC1C(=O)NC[C@H](CC(C)C)C(=O)NC1CNCC1C(=O)NC1CNCC1C(=O)N[C@H](CC(=O)NC1CCCC1C(=O)NC[C@H](Cc1ccc(O)cc1)C(=O)NC1CNCC1C(=O)NC1CNCC1C(=O)N[C@H](CC(=O)NC1CNCC1C(N)=O)Cc1cccc2ccccc12)Cc1ccccc1)CC(C)C (some centres unmarked) [EPE-II-227] | Toxic | –
CNC(=O)C[C@H](C)NC(=O)COC(=O)[C@H]1CCCN1C(=O)CC(Cc1ccccc1)NC(C)=O (some centres unmarked) | – | melting point: 128 to 129 °C
CC(=O)NC1CCCC1C(=O)N[C@H](CC(=O)NC1CCCC1C(=O)NC[C@H](CC(C)C)C(=O)NC1CNCC1C(=O)NC1CNCC1C(=O)N[C@H](CC(=O)NC1CCCC1C(=O)NC[C@H](Cc1ccc(O)cc1)C(=O)NC1CNCC1C(=O)NC1CNCC1C(=O)N[C@H](CC(=O)NC1CNCC1C(N)=O)C(C)C)Cc1ccc2ccccc2c1)CC(C)C (some centres unmarked) [EPE-II-231] | Toxic | –
CC(=O)NC1CCCC1C(=O)N[C@H](CC(=O)NC1CCCC1C(=O)NC[C@H](CC(C)C)C(=O)NC1CNCC1C(=O)NC1CNCC1C(=O)N[C@H](CC(=O)NC1CCCC1C(=O)NC[C@H](Cc1ccc(O)cc1)C(=O)NC1CNCC1C(=O)NC1CNCC1C(=O)N[C@H](CC(=O)NC1CNCC1C(N)=O)C(C)C)Cc1cccc2ccccc12)CC(C)C (some centres unmarked) [EPE-II-233] | Toxic | –
CC(=O)NC1CCCC1C(=O)N[C@H](CC(=O)NC1CCCC1C(=O)NC[C@H](CC(C)C)C(=O)NC1CNCC1C(=O)NC1CNCC1C(=O)N[C@H](CC(=O)NC1CCCC1C(=O)NC[C@H](Cc1ccc(O)cc1)C(=O)NC1CNCC1C(=O)NC1CNCC1C(=O)N[C@H](CC(=O)NC1CNCC1C(N)=O)Cc1ccc2ccccc2c1)Cc1ccccc1)CC(C)C (some centres unmarked) [EPE-II-225] | Toxic | –
CC(=O)NC[C@H](Cc1ccc(O)cc1)C(=O)NC1CCCC1C(=O)NC1CNCC1C(=O)NC1CNCC1C(=O)N[C@H](CC(=O)NC1CNCC1C(=O)NC1CNCC1C(=O)NC1CCCC1C(=O)NC[C@H](CC(C)C)C(=O)NC1CNCC1C(=O)NC1CCCC1C(=O)N[C@H](CC(=O)N[C@H](CC(N)=O)Cc1ccccc1)C(C)C)CC(C)C (some centres unmarked) [ERP-II-005] | – | toxicity toward fibroblasts [1]: highly toxic; disruption of cell membranes [2]: does not simply disrupt cell membranes
heparin | – | nuclear localization of pp65 [3]: eliminates pp65 accumulation in the nucleus
